According to patent US20110039721A1, “METHOD FOR PREDICTION ABOUT CARCINOGENICITY OF SUBSTANCE IN RODENT” (Chemicals Evaluation and Research Institute, priority 2007, published 2011):

Columns and labels:
liver = conditions: in vivo; cited from earlier work
rodent = conditions: in vivo; cited from earlier work
[1] = test system: mRNA expressed from the genes (A) to (D) in rat liver; experiment: Behavior of genes (mRNA expression level, oligo-DNA microarray) in rat liver after 28-day oral administration; format: in vivo; conditions: for Behavior of gene caused by administration of chemical substance, Gene No. 154 / Behavior of gene caused by administration of chemical substance, Gene No. 533 / Behavior of gene caused by administration of chemical substance, Gene No. 725 / Behavior of gene caused by administration of chemical substance, Gene No. 813 / Behavior of gene caused by administration of chemical substance, Gene No. 893 / Behavior of gene caused by administration of chemical substance, Gene No. 1119 / Behavior of gene caused by administration of chemical substance, Gene No. 1131 / Behavior of gene caused by administration of chemical substance, Gene No. 1163 / Behavior of gene caused by administration of chemical substance, Gene No. 1334 / Behavior of gene caused by administration of chemical substance, Gene No. 1494 / Behavior of gene caused by administration of chemical substance, Gene No. 1562 / Behavior of gene caused by administration of chemical substance, Gene No. 1741 / Behavior of gene caused by administration of chemical substance, Gene No. 1993 / Behavior of gene caused by administration of chemical substance, Gene No. 2026 / Behavior of gene caused by administration of chemical substance, Gene No. 2045 / Behavior of gene caused by administration of chemical substance, Gene No. 2203 / Behavior of gene caused by administration of chemical substance, Gene No. 2494 / Behavior of gene caused by administration of chemical substance, Gene No. 2546 / Behavior of gene caused by administration of chemical substance, Gene No. 3776 / Behavior of gene caused by administration of chemical substance, Gene No. 3929 / Behavior of gene caused by administration of chemical substance, Gene No. 4095 / Behavior of gene caused by administration of chemical substance, Gene No. 4218 / Behavior of gene caused by administration of chemical substance, Gene No. 4846 / Behavior of gene caused by administration of chemical substance, Gene No. 4973 / Behavior of gene caused by administration of chemical substance, Gene No. 5600 / Behavior of gene caused by administration of chemical substance, Gene No. 5634 / Behavior of gene caused by administration of chemical substance, Gene No. 5726 / Behavior of gene caused by administration of chemical substance, Gene No. 5878 / Behavior of gene caused by administration of chemical substance, Gene No. 6026 / Behavior of gene caused by administration of chemical substance, Gene No. 6182 / Behavior of gene caused by administration of chemical substance, Gene No. 6303 / Behavior of gene caused by administration of chemical substance, Gene No. 6620 / Behavior of gene caused by administration of chemical substance, Gene No. 6742: rat, in vivo
In short: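 Groups of four male F344 SPF rats aged 5 weeks are gavaged once a day for 28 days with test chemical in solvent or with solvent alone at equal volume. Total RNA comes from liver taken on day 28. Fold change of 1.5 or 1/1.5 versus control, directionally consistent, defines significance.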

O=C1N=C([O-])NC1(c1ccccc1)c1ccccc1.[Na+] [TS069, Phenytoin Na]
Liver carcinogenicity (liver): Cr−
Carcinogenicity (rodent): C+
Behavior of gene caused by administration of chemical substance, Gene No. 154 [1]: +
Behavior of gene caused by administration of chemical substance, Gene No. 533 [1]: −
Behavior of gene caused by administration of chemical substance, Gene No. 725 [1]: +
Behavior of gene caused by administration of chemical substance, Gene No. 813 [1]: −
Behavior of gene caused by administration of chemical substance, Gene No. 893 [1]: −
Behavior of gene caused by administration of chemical substance, Gene No. 1119 [1]: −
Behavior of gene caused by administration of chemical substance, Gene No. 1131 [1]: −
Behavior of gene caused by administration of chemical substance, Gene No. 1163 [1]: −
Behavior of gene caused by administration of chemical substance, Gene No. 1334 [1]: −
Behavior of gene caused by administration of chemical substance, Gene No. 1494 [1]: +
Behavior of gene caused by administration of chemical substance, Gene No. 1562 [1]: −
Behavior of gene caused by administration of chemical substance, Gene No. 1741 [1]: +
Behavior of gene caused by administration of chemical substance, Gene No. 1993 [1]: −
Behavior of gene caused by administration of chemical substance, Gene No. 2026 [1]: −
Behavior of gene caused by administration of chemical substance, Gene No. 2045 [1]: +
Behavior of gene caused by administration of chemical substance, Gene No. 2203 [1]: +
Behavior of gene caused by administration of chemical substance, Gene No. 2494 [1]: −
Behavior of gene caused by administration of chemical substance, Gene No. 2546 [1]: −
Behavior of gene caused by administration of chemical substance, Gene No. 3776 [1]: −
Behavior of gene caused by administration of chemical substance, Gene No. 3929 [1]: +
Behavior of gene caused by administration of chemical substance, Gene No. 4095 [1]: +
Behavior of gene caused by administration of chemical substance, Gene No. 4218 [1]: −
Behavior of gene caused by administration of chemical substance, Gene No. 4846 [1]: −
Behavior of gene caused by administration of chemical substance, Gene No. 4973 [1]: +
Behavior of gene caused by administration of chemical substance, Gene No. 5600 [1]: −
Behavior of gene caused by administration of chemical substance, Gene No. 5634 [1]: +
Behavior of gene caused by administration of chemical substance, Gene No. 5726 [1]: −
Behavior of gene caused by administration of chemical substance, Gene No. 5878 [1]: −
Behavior of gene caused by administration of chemical substance, Gene No. 6026 [1]: −
Behavior of gene caused by administration of chemical substance, Gene No. 6182 [1]: +
Behavior of gene caused by administration of chemical substance, Gene No. 6303 [1]: −
Behavior of gene caused by administration of chemical substance, Gene No. 6620 [1]: −
Behavior of gene caused by administration of chemical substance, Gene No. 6742 [1]: −

CC(=O)Nc1ccc(C(=O)CCl)cc1 [TS072, 4-(Chloroacetyl)acetanilide]
Liver carcinogenicity (liver): Cr−
Carcinogenicity (rodent): C−
Behavior of gene caused by administration of chemical substance, Gene No. 154 [1]: −
Behavior of gene caused by administration of chemical substance, Gene No. 533 [1]: +
Behavior of gene caused by administration of chemical substance, Gene No. 725 [1]: +
Behavior of gene caused by administration of chemical substance, Gene No. 813 [1]: −
Behavior of gene caused by administration of chemical substance, Gene No. 893 [1]: −
Behavior of gene caused by administration of chemical substance, Gene No. 1119 [1]: −
Behavior of gene caused by administration of chemical substance, Gene No. 1131 [1]: −
Behavior of gene caused by administration of chemical substance, Gene No. 1163 [1]: +
Behavior of gene caused by administration of chemical substance, Gene No. 1334 [1]: −
Behavior of gene caused by administration of chemical substance, Gene No. 1494 [1]: +
Behavior of gene caused by administration of chemical substance, Gene No. 1562 [1]: −
Behavior of gene caused by administration of chemical substance, Gene No. 1741 [1]: −
Behavior of gene caused by administration of chemical substance, Gene No. 1993 [1]: −
Behavior of gene caused by administration of chemical substance, Gene No. 2026 [1]: +
Behavior of gene caused by administration of chemical substance, Gene No. 2045 [1]: +
Behavior of gene caused by administration of chemical substance, Gene No. 2203 [1]: +
Behavior of gene caused by administration of chemical substance, Gene No. 2494 [1]: −
Behavior of gene caused by administration of chemical substance, Gene No. 2546 [1]: −
Behavior of gene caused by administration of chemical substance, Gene No. 3776 [1]: +
Behavior of gene caused by administration of chemical substance, Gene No. 3929 [1]: −
Behavior of gene caused by administration of chemical substance, Gene No. 4095 [1]: −
Behavior of gene caused by administration of chemical substance, Gene No. 4218 [1]: +
Behavior of gene caused by administration of chemical substance, Gene No. 4846 [1]: +
Behavior of gene caused by administration of chemical substance, Gene No. 4973 [1]: +
Behavior of gene caused by administration of chemical substance, Gene No. 5600 [1]: +
Behavior of gene caused by administration of chemical substance, Gene No. 5634 [1]: −
Behavior of gene caused by administration of chemical substance, Gene No. 5726 [1]: −
Behavior of gene caused by administration of chemical substance, Gene No. 5878 [1]: −
Behavior of gene caused by administration of chemical substance, Gene No. 6026 [1]: −
Behavior of gene caused by administration of chemical substance, Gene No. 6182 [1]: +
Behavior of gene caused by administration of chemical substance, Gene No. 6303 [1]: −
Behavior of gene caused by administration of chemical substance, Gene No. 6620 [1]: −
Behavior of gene caused by administration of chemical substance, Gene No. 6742 [1]: −

Nc1ccc(N=Nc2ccccc2)cc1 [TS075, 4-Aminoazobenzene]
Liver carcinogenicity (liver): Cr+
Carcinogenicity (rodent): C+
Behavior of gene caused by administration of chemical substance ([1]; Gene No. 154, Rn.185941, group (C)): −
Behavior of gene caused by administration of chemical substance ([1]; Gene No. 533, Rn.106184, group (C)): −
Behavior of gene caused by administration of chemical substance ([1]; Gene No. 725, Rn.108075, group (C)): −
Behavior of gene caused by administration of chemical substance ([1]; Gene No. 813, Rn.201760, group (C)): −
Behavior of gene caused by administration of chemical substance ([1]; Gene No. 893, Rn.164817, group (C)): +
Behavior of gene caused by administration of chemical substance ([1]; Gene No. 1119, Rn.9757, group (C)): −
Behavior of gene caused by administration of chemical substance ([1]; Gene No. 1131, Rn.144946, group (C)): −
Behavior of gene caused by administration of chemical substance ([1]; Gene No. 1163, Rn.11766, group (C)): +
Behavior of gene caused by administration of chemical substance ([1]; Gene No. 1334, Rn.120914, group (C)): −
Behavior of gene caused by administration of chemical substance ([1]; Gene No. 1494, Rn.1430, group (B)): −
Behavior of gene caused by administration of chemical substance ([1]; Gene No. 1562, Rn.14744, group (C)): −
Behavior of gene caused by administration of chemical substance ([1]; Gene No. 1741, Rn.1647, group (C)): −
Behavior of gene caused by administration of chemical substance ([1]; Gene No. 1993, Rn.18728, group (C)): +
Behavior of gene caused by administration of chemical substance ([1]; Gene No. 2026, Rn.167075, group (A)): −
Behavior of gene caused by administration of chemical substance ([1]; Gene No. 2045, Rn.19329, group (B)): −
Behavior of gene caused by administration of chemical substance ([1]; Gene No. 2203, Rn.21240, group (B)): +
Behavior of gene caused by administration of chemical substance ([1]; Gene No. 2494, Rn.23969, group (C)): −
Behavior of gene caused by administration of chemical substance ([1]; Gene No. 2546, Rn.24561, group (C)): +
Behavior of gene caused by administration of chemical substance ([1]; Gene No. 3776, Rn.43232, group (C)): −
Behavior of gene caused by administration of chemical substance ([1]; Gene No. 3929, Rn.4620, group (C)): +
Behavior of gene caused by administration of chemical substance ([1]; Gene No. 4095, Rn.119024, group (C)): +
Behavior of gene caused by administration of chemical substance ([1]; Gene No. 4218, Rn.167075, group (A)): −
Behavior of gene caused by administration of chemical substance ([1]; Gene No. 4846, Rn.144554, group (A)): −
Behavior of gene caused by administration of chemical substance ([1]; Gene No. 4973, Rn.118529, group (C)): +
Behavior of gene caused by administration of chemical substance ([1]; Gene No. 5600, Rn.9836, group (A)): −
Behavior of gene caused by administration of chemical substance ([1]; Gene No. 5634, Rn.9862, group (C)): −
Behavior of gene caused by administration of chemical substance ([1]; Gene No. 5726, Rn.9939, group (D)): −
Behavior of gene caused by administration of chemical substance ([1]; Gene No. 5878, Rn.143213, group (C)): −
Behavior of gene caused by administration of chemical substance ([1]; Gene No. 6026, Rn.167685, group (C)): −
Behavior of gene caused by administration of chemical substance ([1]; Gene No. 6182, Rn.5834, group (A)): −
Behavior of gene caused by administration of chemical substance ([1]; Gene No. 6303, Rn.123063, group (C)): −
Behavior of gene caused by administration of chemical substance ([1]; Gene No. 6620, Rn.120914, group (C)): −
Behavior of gene caused by administration of chemical substance ([1]; Gene No. 6742, Rn.9779, group (C)): −
